From US4500520A, “Antiinflammatory and/or analgesic silylfurans” (E. I. Du Pont de Nemours and Company, priority 1983, dated 1985) come the findings set out here.

Experiment [1] relates to phenylquinone-induced writhing. In words: Phenylquinone writhing test. Particulars: Mus musculus, read-out: Phenylquinone Writhing (PQW) ED50. It counts as in vivo, mouse (female white). How it is done: PHENYLQUINONE WRITHING TEST
A standard procedure for detecting and comparing the analgesic activity of compounds in this series for which there is a good correlation with human efficacy is the standard phenylquinone writhing test modified from Siegmund, et al., Proc. Soc. Exp. Biol. Med., 95, 729 (1957). A test compound suspended in 1% methylcellulose was given orally to fasted (17-21 hours) female white mice, 5-20 animals per double blind test. Aqueous (0.01% phenyl-p-benzoquinone) phenylquinone, 0.20 ml per mouse, was injected intraperitoneally 6 minutes before observations were begun. […] The effective analgesic dose for 50% of the mice (ED50) was calculated by the moving average method of Thompson, W. R., Bact. Rev., 11, 115-145 (1947); the time of peak activity was determined for many of the compounds. Data for some of the compounds are summarized in Table II together with data for some standard analgetic-antiinflammatory drugs.

Experiment [2] relates to adjuvant-induced arthritis (paw volume, uninjected left hind paw). Nature of the experiment: Established adjuvant-induced arthritis in rats. It counts as in vivo, rat (male Charles River Lewis). Conditions: for ED50: Rattus norvegicus, read-out: Adjuvant Arthritis ED50; for Adjuvant Arthritis, percent reduction in paw volume at the indicated dose: at 27 mg/kg.
The mark [3] stands for this setting: oral, mice, effective analgesic dose for 50% of the mice, moving average method.
Setting [4] is: oral, 7 daily doses, rats, effective dose for 50% decrease from control paw volume, read from dose-response line by inspection.

Like-named read-outs stand apart in the source and are kept apart here. Some results are limits rather than exact numbers.

For `CC(=O)Oc1ccccc1C(=O)O` [Aspirin, reference compound], the figures for the ED50 in experiment [1] (po) and in experiment [2] (po) were 135 mg/kg and 305 mg/kg, respectively.

With `C[Si](C)(C)c1cc(-c2ccc(F)cc2)c(-c2ccc(F)cc2)o1` [Example 1, 4,5-bis(4-Fluorophenyl)-2-trimethylsilylfuran], in experiment [1] (po), the ED50 turned out to be 39 mg/kg. Further, the “Adjuvant Arthritis, percent reduction in paw volume at the indicated dose” value (shortened to “Adjuvant Arthritis, percent reduction”) in experiment [2] (oral, 7 daily doses, rats) worked out at 32%.

For `COc1ccc(-c2cc([Si](C)(C)C)oc2-c2ccc(OC)cc2)cc1` [Example 2, 4,5-bis(4-Methoxyphenyl)-2-trimethylsilylfuran], the values for the ED50 in experiment [1] (po) and in experiment [2] (po) were 2.3 mg/kg and 2.5 mg/kg, respectively.

As for `C[Si](C)(C)c1cc(-c2ccccc2)c(-c2ccccc2)o1` [Example 3, 4,5-Diphenyl-2-trimethylsilylfuran], in experiment [1] (po), the ED50 was found to be 94 mg/kg. Besides, the “Adjuvant Arthritis, percent reduction” value in experiment [2] (oral, 7 daily doses, rats) was determined as 24%.

Consider `CSc1ccc(-c2cc([Si](C)(C)C)oc2-c2ccc(F)cc2)cc1` [Example 4, 5-(4-Fluorophenyl)-4-(4-methylthiophenyl)-2-trimethylsilylfuran], for which the ED50 in experiment [1] (po) was greater than 135 mg/kg; in experiment [2] (po), greater than 27 mg/kg.

For the compound `Cc1ccc(-c2cc([Si](C)(C)C)oc2-c2ccc(Cl)cc2)cc1` [Example 5, 5-(4-Chlorophenyl)-4-(4-methylphenyl)-2-trimethylsilylfuran], in experiment [1] (po), the ED50 is greater than 135 mg/kg. The “Adjuvant Arthritis, percent reduction” value in experiment [2] (oral, 7 daily doses, rats) is given as 15%.

With `CC(C)Cc1ccc(C(C)C(=O)O)cc1` (stereo not drawn) [Ibuprofen, reference compound], the values for the ED50 in experiment [1] (setting [3]) and in experiment [2] (setting [4]) were 10 mg/kg and 100 mg/kg, respectively.

As for `COc1ccc2c(c1)c(CC(=O)O)c(C)n2C(=O)c1ccc(Cl)cc1` [Indomethacin, reference compound], the values for the ED50 in experiment [1] (po) and in experiment [2] (po) were 0.35 mg/kg and 0.3 mg/kg, respectively.

Turning to `CCCCC1C(=O)N(c2ccccc2)N(c2ccccc2)C1=O` [Phenylbutazone, reference compound], the ED50 in experiment [1] (setting [3]) came to 80 mg/kg; in experiment [2] (setting [4]) it was 10 mg/kg.
